Drawing on patent publication US9034855B2, “Substituted phenylacetate and phenylpropane amides and use thereof” (Bayer Intellectual Property GmbH, priority 2010, dated 2015), this text covers IC50 for 22 molecules.

One may read the IC50 as the point on the concentration scale where inhibition reaches its midpoint.

One assay has as its target T1, human V2 receptor (Homo sapiens, UniProt P30518).
T1 construct: expressed in transfected cells; host or cells: CHO K1 (ATCC), constitutively expressing modified aequorin, co-transfected with promiscuous G-alpha-16
Briefly: Cellular in vitro assay for determining the vasopressin receptor activity (aequorin luminescence, recombinant CHO cells), human V2. Type of assay: cell-based. Conditions: CHO cells expressing aequorin and Gα16, transfected with human V2 receptor; agonist [Arg8]-vasopressin; read-out: IC50 hV2. From the text:
(§1) B-1. Cellular In Vitro Assay for Determining the Vasopressin Receptor Activity
(§2) The identification of agonists and antagonists of the V1a and V2 vasopressin receptors from humans and rats and also the quantification of the activity of the substances described here takes place using recombinant cell lines. These cells derive originally from a hamster's ovary epithelial cell (Chinese Hamster Ovary, CHO K1, ATCC: American Type Culture Collection, Manassas, Va. 20108, USA). The test cell lines constitutively express a modified form of the calcium-sensitive photoprotein aequorin, which, after reconstitution with the cofactor coelenterazine, emits light when there are increases in the free calcium concentration (Rizzuto R., Simpson A. W., Brini M., Pozzan T.; Nature 358 (1992) 325-327). In addition, the cells are stably transfected with the human or rat V1a or V2 receptors. In the case of the Gs-coupling V2 receptors, the cells are stably transfected with a further gene, which codes for the promiscuous Gα16 protein (Amatruda T. T., Steele D. A., Slepak V. Z., Simon M A., Proc. Na. Acad. Sci. USA 88 (1991), 5587-5591), either independently or as a fusion gene. The resulting vasopressin receptor test cells react to stimulation of the recombinantly expressed vasopressin receptors by intracellular release of calcium ions, which can be quantified by the resulting aequorin luminescence using a suitable luminometer (Milligan G., Marshall F., Rees S., Trends in Pharmaco. Sci. 17 (1996) 235-237).
(§3) On the day before the assay, the cells are plated out in culture medium (DMEM, 10% FCS, 2 mM glutamine, 10 mM HEPES) in 384-well microtiter plates and kept in a cell incubator (96% atmospheric humidity, 5% v/v carbon dioxide, 37° C.). On the day of the assay, the culture medium is replaced by a Tyrode solution (140 mM sodium chloride, 5 mM potassium chloride, 1 mM magnesium chloride, 2 mM calcium chloride, 20 mM glucose, 20 mM HEPES), which additionally contains the cofactor coelenterazine (50 μM), and the microtiter plate is then incubated for a further 3-4 hours. The test substances in various concentrations are placed for 10 to 20 minutes in the wells of the microtiter plate before the agonist [Arg8]-vasopressin is added, and the resulting light signal is measured immediately in the luminometer. The IC50 values are calculated using the GraphPad PRISM computer program (Version 3.02).
(§4) Table A below lists representative IC50 values for the compounds according to the invention transfected with the human V1a or V2 receptor: […]

The target of another assay is T2, human V1a receptor (Homo sapiens, UniProt P37288).
T2 construct: expressed in transfected cells; host or cells: CHO K1 (ATCC), constitutively expressing modified aequorin
T2 sequence (P37288 whole entry): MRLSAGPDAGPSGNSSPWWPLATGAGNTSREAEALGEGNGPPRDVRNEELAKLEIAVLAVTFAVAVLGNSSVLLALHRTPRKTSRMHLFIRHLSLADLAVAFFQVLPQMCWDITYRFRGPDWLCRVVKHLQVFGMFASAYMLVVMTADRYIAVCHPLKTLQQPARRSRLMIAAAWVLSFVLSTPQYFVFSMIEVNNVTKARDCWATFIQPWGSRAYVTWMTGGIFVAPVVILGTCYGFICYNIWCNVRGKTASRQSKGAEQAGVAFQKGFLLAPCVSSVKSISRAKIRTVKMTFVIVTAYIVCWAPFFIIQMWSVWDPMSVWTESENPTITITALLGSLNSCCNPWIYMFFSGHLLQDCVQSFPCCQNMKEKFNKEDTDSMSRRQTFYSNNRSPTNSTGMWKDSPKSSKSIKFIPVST
Briefly: Cellular in vitro assay for determining the vasopressin receptor activity (aequorin luminescence, recombinant CHO cells), human V1a. Type of assay: cell-based. Conditions: CHO cells expressing aequorin, transfected with human V1a receptor; agonist [Arg8]-vasopressin; read-out: IC50 hV1a.
Text: as §1, §2, §3, §4

T1 sequence (P30518 whole entry): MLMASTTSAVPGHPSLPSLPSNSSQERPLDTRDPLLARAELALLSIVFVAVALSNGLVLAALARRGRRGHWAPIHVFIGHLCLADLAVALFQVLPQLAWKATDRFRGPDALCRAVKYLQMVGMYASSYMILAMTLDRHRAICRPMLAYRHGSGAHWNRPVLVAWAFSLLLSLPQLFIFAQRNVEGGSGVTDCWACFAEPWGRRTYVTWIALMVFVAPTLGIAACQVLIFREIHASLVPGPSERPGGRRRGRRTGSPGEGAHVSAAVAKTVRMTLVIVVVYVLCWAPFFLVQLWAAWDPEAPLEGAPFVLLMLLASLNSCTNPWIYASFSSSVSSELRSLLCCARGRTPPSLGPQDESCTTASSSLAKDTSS

`CCOC(=O)C1(NC(=O)C(NC(=O)Cn2nc(-c3ccc(Cl)cc3)n(C3CC3)c2=O)c2cccc(C(F)(F)F)c2)CC1` (racemic) [Example 5, Ethyl 1-({({[3-(4-chlorophenyl)-4-cyclopropyl-5-oxo-4,5-dihydro-1H-1,2,4-triazol-1-yl]acetyl}-amino) [3-(trifluoromethyl)phenyl]acetyl}amino)cyclopropanecarboxylate]: the IC50 on human V2 receptor was 1170 nM; on human V1a receptor, 42 nM.
Taken in the same sequence, the figures for `COC(=O)C(C)(C)NC(=O)C(NC(=O)Cn1nc(-c2ccc(Cl)cc2)n(C2CC2)c1=O)c1cccc(C(F)(F)F)c1` (racemic) [Example 11, Methyl N-{({[3-(4-chlorophenyl)-4-cyclopropyl-5-oxo-4,5-dihydro-1H-1,2,4-triazol-1-yl]acetyl}-amino)[3-(trifluoromethyl)phenyl]acetyl}-2-methylalaninate] were 497 nM and 28 nM.
Taken in the same sequence, the figures for `CC(C)(NC(=O)C(NC(=O)Cn1nc(-c2ccc(Cl)cc2)n(C2CC2)c1=O)c1cccc(C(F)(F)F)c1)C(=O)O` (racemic) [Example 12, N-{({[3-(4-Chlorophenyl)-4-cyclopropyl-5-oxo-4,5-dihydro-1H-1,2,4-triazol-1-yl]acetyl}amino) [3-(trifluoromethyl)phenyl]acetyl}-2-methylalanine] were 182 nM and 24 nM.
For `COC(=O)CCNC(=O)C(NC(=O)Cn1nc(-c2ccc(Cl)cc2)n(C2CC2)c1=O)c1cccc(C(F)(F)F)c1` (racemic) [Example 15, Methyl N-{({[3-(4-chlorophenyl)-4-cyclopropyl-5-oxo-4,5-dihydro-1H-1,2,4-triazol-1-yl]acetyl}-amino) [3-(trifluoromethyl)phenyl]acetyl}-beta-alaninate] the same measures were 310 nM and 12 nM.
As to `O=C(O)CCNC(=O)C(NC(=O)Cn1nc(-c2ccc(Cl)cc2)n(C2CC2)c1=O)c1cccc(C(F)(F)F)c1` (racemic) [Example 16, N-{({[3-(4-Chlorophenyl)-4-cyclopropyl-5-oxo-4,5-dihydro-1H-1,2,4-triazol-1-yl]acetyl}amino) [3-(trifluoromethyl)phenyl]acetyl}-beta-alanine], the IC50 was found to be 262 nM at human V2 receptor and 524 nM on human V1a receptor.
Taken in the same sequence, the figures for `CC(C)(NC(=O)C(NC(=O)Cn1nc(-c2ccc(Cl)cc2)n(CCC(F)(F)F)c1=O)c1ccccc1C(F)(F)F)C(N)=O` (racemic) [Example 32, N^2-{({[3-(4-Chlorophenyl)-5-oxo-4-(3,3,3-trifluoropropyl)-4,5-dihydro-1H-1,2,4-triazol-1-yl]acetyl}amino) [2-(trifluoromethyl)phenyl]acetyl}-2-methylalaninamide] were 1270 nM and 7.1 nM.
As for `CC(C)(NC(=O)C(NC(=O)Cn1nc(-c2ccc(Cl)cc2)n(Cc2ccccc2F)c1=O)c1ccccc1Cl)C(N)=O` (racemic) [Example 33, N^2-[(2-Chlorophenyl)({[3-(4-chlorophenyl)-4-(2-fluorobenzyl)-5-oxo-4,5-dihydro-1H-1,2,4-triazol-1-yl]acetyl}amino)acetyl]-2-methylalaninamide], the IC50 at human V2 receptor was determined as 1050 nM; on human V1a receptor, 17 nM.
Taken in the same sequence, the figures for `CC(C)(NC(=O)C(NC(=O)Cn1nc(-c2ccc(Cl)cc2)n(CCC(F)(F)F)c1=O)c1ccccc1Cl)C(N)=O` (racemic) [Example 35, N^2-[(2-Chlorophenyl)({[3-(4-chlorophenyl)-5-oxo-4-(3,3,3-trifluoropropyl)-4,5-dihydro-1H-1,2,4-triazol-1-yl]acetyl}amino)acetyl]-2-methylalaninamide] were 655 nM and 8.9 nM.
Taken in the same sequence, the figures for `CC(C)(NC(=O)C(NC(=O)Cn1nc(-c2ccc(Cl)cc2)n(Cc2ccccc2F)c1=O)c1cccc(Cl)c1Cl)C(N)=O` (racemic) [Example 36, N^2-[({[3-(4-Chlorophenyl)-4-(2-fluorobenzyl)-5-oxo-4,5-dihydro-1H-1,2,4-triazol-1-yl]acetyl}-amino)(2,3-dichlorophenyl)acetyl]-2-methylalaninamide] were 780 nM and 88.2 nM.
Take `O=C(Cn1nc(-c2ccc(Cl)cc2)n(C[C@H](O)C(F)(F)F)c1=O)NC(C(=O)NC1(C(=O)O)CC1)c1cccc(C(F)(F)F)c1` (single isomer, unassigned) [Example 3]: the IC50 was found to be 467 nM at human V2 receptor and 554 nM at human V1a receptor.
For the molecule `O=C(Cn1nc(-c2ccc(Cl)cc2)n(C[C@H](O)C(F)(F)F)c1=O)NC(C(=O)NC1(C(=O)O)CC1)c1cccc(C(F)(F)F)c1` (single isomer, unassigned) [Example 4], the IC50 at human V2 receptor came out at 4.1 nM; on human V1a receptor, 1.9 nM.
For `NC(=O)CCNC(=O)C(NC(=O)Cn1nc(-c2ccc(Cl)cc2)n(C[C@H](O)C(F)(F)F)c1=O)c1cccc(C(F)(F)F)c1` (single isomer, unassigned) [Example 17] the same measures were 22 nM and 1420 nM.
For `NC(=O)CCNC(=O)C(NC(=O)Cn1nc(-c2ccc(Cl)cc2)n(C[C@H](O)C(F)(F)F)c1=O)c1cccc(C(F)(F)F)c1` (single isomer, unassigned) [Example 18] the same measures were 1.9 nM and 1.2 nM.
`CC(C)(NC(=O)C(NC(=O)Cn1nc(-c2ccc(Cl)cc2)n(C[C@H](O)C(F)(F)F)c1=O)c1cccc(C(F)(F)F)c1)C(=O)O` (single isomer, unassigned) [Example 25]: the IC50 at human V2 receptor came to 282 nM; on human V1a receptor, 502 nM.
`CC(C)(NC(=O)C(NC(=O)Cn1nc(-c2ccc(Cl)cc2)n(C[C@H](O)C(F)(F)F)c1=O)c1cccc(C(F)(F)F)c1)C(=O)O` (single isomer, unassigned) [Example 26]: the IC50 at human V2 receptor is 2.3 nM; on human V1a receptor, 1.7 nM.
As for `CC(C)(NC(=O)C(NC(=O)Cn1nc(-c2ccc(Cl)cc2)n(C[C@H](O)C(F)(F)F)c1=O)c1cccc(C(F)(F)F)c1)C(N)=O` (single isomer, unassigned) [Example 28], the half-maximal inhibitory concentration (IC50) at human V2 receptor amounted to 346 nM; at human V1a receptor it was 1380 nM.
As to `CC(C)(NC(=O)C(NC(=O)Cn1nc(-c2ccc(Cl)cc2)n(C[C@H](O)C(F)(F)F)c1=O)c1cccc(C(F)(F)F)c1)C(N)=O` (single isomer, unassigned) [Example 29], the IC50 on human V2 receptor came to 3.3 nM; at human V1a receptor, 1 nM.
As for `CC(C)(CO)NC(=O)C(NC(=O)Cn1nc(-c2ccc(Cl)cc2)n(C[C@H](O)C(F)(F)F)c1=O)c1cccc(C(F)(F)F)c1` (single isomer, unassigned) [Example 41], the IC50 at human V2 receptor was 3.6 nM; at human V1a receptor, 1.5 nM.
For `CC(C)(CO)NC(=O)C(NC(=O)Cn1nc(-c2ccc(Cl)cc2)n(C[C@H](O)C(F)(F)F)c1=O)c1cccc(C(F)(F)F)c1` (single isomer, unassigned) [Example 42] the same measures were 158 nM and 38 nM.
Taken in the same sequence, the figures for `COCCn1c(-c2ccc(Cl)s2)nn(CC(=O)NC(C(=O)NC(C)(C)CO)c2cccc(C(F)(F)F)c2)c1=O` (single isomer, unassigned) [Example 43, 2-({[3-(5-Chloro-2-thienyl)-4-(2-methoxyethyl)-5-oxo-4,5-dihydro-1H-1,2,4-triazol-1-yl]acetyl}amino)-N-(1-hydroxy-2-methylpropan-2-yl)-2-[3-(trifluoromethyl)phenyl]acetamide] were 1600 nM and 60 nM.
For `O=C(Cn1nc(-c2ccc(Cl)cc2)n(C[C@H](O)C(F)(F)F)c1=O)NC(C(=O)NCCOC(F)(F)F)c1cccc(C(F)(F)F)c1` (single isomer, unassigned) [Example 59], the IC50 on human V2 receptor came to 61 nM; at human V1a receptor, 136 nM.
For `O=C(Cn1nc(-c2ccc(Cl)cc2)n(C[C@H](O)C(F)(F)F)c1=O)NC(C(=O)NCCOC(F)(F)F)c1cccc(C(F)(F)F)c1` (single isomer, unassigned) [Example 60] the same measures were 19.7 nM and 3 nM.
